How the values were obtained:
[1] = target: T1, SARS-CoV-2 Mpro (Severe acute respiratory syndrome coronavirus 2, UniProt P0DTD1); assay: biochemical; type: biochemical; conditions: aldehyde hydration penalty taken into account
[2] = target: T1, SARS-CoV-2 Mpro; assay: Covalent bond (adduct) formation kinetics by IR-MALDESI intact protein MS; type: binding; conditions: for covalent complex formation in the titration of compound versus Mpro: up to 5-fold molar excess of compound, unquenched condition for compound 5
[3] = target: His tag SARS-CoV-2 3CLpro (1-306) F305A, Q306A (Severe acute respiratory syndrome coronavirus 2, UniProt P0DTD1, F3568A/Q3569A); type: binding

Compound | likely affinity accounting for the hydration penalty [1] | time for which covalent binding persists after chase (reversibility of adduct formation) [2] | covalent complex formation in the titration of compound versus Mpro [2] | Kd [3] | T1/2 [3]
COc1cccc2[nH]c(C(=O)N[C@@H](CC3CC3)C(=O)N[C@H](C=O)C[C@@H]3CCNC3=O)cc12 [Compound 1, N-((S)-3-cyclopropyl-1-oxo-1-(((S)-1-oxo-3-((S)-2-oxopyrrolidin-3-yl)propan-2-yl)amino)propan-2-yl)-4-methoxy-1H-indole-2-carboxamide] | ~10 pM | at least 4 h | did not reach saturation |  | 
O=C[C@H](C[C@@H]1CCNC1=O)NC(=O)[C@H](CC1CC1)NC(=O)OCc1ccccc1 [Compound 2, benzyl ((S)-3-cyclopropyl-1-oxo-1-(((S)-1-oxo-3-((S)-2-oxopyrrolidin-3-yl)propan-2-yl)amino)propan-2-yl)carbamate] | ~10 pM |  |  |  | 
COc1cccc2[nH]c(C(=O)N[C@@H](CC3CC3)C(=O)N[C@H](C#N)C[C@@H]3CCNC3=O)cc12 [Compound 5, N-((S)-1-(((S)-1-cyano-2-((S)-2-oxopyrrolidin-3-yl)ethyl)amino)-3-cyclopropyl-1-oxopropan-2-yl)-4-methoxy-1H-indole-2-carboxamide] |  | ≤ 1 h | ~100% |  | 
CS(=O)(=O)CC[C@@H](C#N)NC(=O)[C@H](CC1CC1)NC(=O)OCc1ccccc1 [Compound 8, benzyl ((S)-1-(((S)-1-cyano-3-(methylsulfonyl)propyl)amino)-3-cyclopropyl-1-oxopropan-2-yl)carbamate] |  |  |  | No Activity | No activity
